This test deals with skeletal myofibrils (myosin ATPase activity). In words: Skeletal Myofibril ATPase Assay. The format is biochemical. As to conditions: PK-LDH coupled, absorbance at 340 nm. On the procedure:
Overview: Myosin ATPase activity is assessed by using a coupled reaction system, in which ADP generated by the myosin ATPase function is coupled to the disappearance of NADH through the pyruvate kinase/lactate dehydrogenase (PK-LDH) system. Myosin ATPase activity produces ADP, which is used as a substrate for PK to produce pyruvate and regenerate ATP. The pyruvate is then used as a substrate by LDH to oxidize NADH to NAD+. The rate of the reaction is monitored through the time-dependent disappearance of NADH using absorbance at 340 nm. Inhibition of ATPase activity by the assayed compounds is indicated by a reduced rate of NADH loss, relative to vehicle-treated controls, over the experimental time window. To assess the selectivity of the assayed compounds for skeletal myofibrils, the compounds are counter-screened in cardiac myofibrils.
Materials: The following stock solutions and reagents were used in the Skeletal Myofibril ATPase Assay:
Stock Solutions of pCa buffer. Combine PIPES, CaCl2, and EGTA solutions with 70 mL of water. Adjust pH to 7.0 and bring final volume to 100 mL.
Skeletal Myofibril ATPase Assay Procedure: BSA, ATP, NADH, PEP, and DTT solutions were thawed at room temperature, then transferred to ice. Pellet-frozen myofibrils (approximately twice the required volume) were transferred into a sufficiently large tube and capped. Myofibrils were thawed by rolling in a water bath for approximately 15 min at room temperature and cooled on ice. Buffers A and B were prepared by adjusting volumes as necessary for required number of wells and stored on ice. 0.5 μL of the compounds to be assayed were added into wells of a 384-well plate. Buffers A and B were mixed by inversion immediately prior to use, then 25 μL of each was dispensed using a Multidrop dispenser (Buffer A first, then Buffer B). The absorbance within the wells was measured at 340 nm, using a kinetic protocol in which the wells are read every 1.5-2 min for 1 h. The reaction rate was qualitatively assessed by subtracting the minimum absorbance value from the maximum value for each well, using either the SoftMax Pro plate reader software or a spreadsheet program such as Excel. Using GraphPad Prism 8.0, the data was normalized, with 100% activity defined as the absorbance change in the 1% DMSO vehicle wells and 0% assigned to no change in absorbance over the course of the experiment. The normalized data were fit to a variable-slope four-parameter logistic model, constraining the bottom to be 0 or greater. Compounds of Table 1 to 4 were tested and results of the assay appear in Table 5 herein. A=IC50 is less than or equal to 10 μM; B=IC50 is greater than 10 μM and less than 100 μM; C=IC50 is greater than 100 μM; […].
A word on the IC50: it is the concentration needed to halve the response being measured. A high value points to a need for much substance. `O=c1ccc(-c2ccc(OC(F)F)cc2)nn1Cc1ccncn1` [Compound 225, 6-(4-(difluoromethoxy)phenyl)-2-(pyrimidin-4-ylmethyl)pyridazin-3(2H)-one]: the IC50 is > 100 µM.
The value for `O=c1ccc(-c2ccc(OC(F)F)nc2)nn1Cc1cncc(F)c1` [Compound 9] was < 10 µM; that for `O=c1ccc(-c2cnc(OCC(F)(F)F)nc2)nn1Cc1cnc(C2CC2)s1` [Compound 100, 2-((2-cyclopropylthiazol-5-yl)methyl)-6-(2-(2,2,2-trifluoroethoxy)pyrimidin-5-yl)pyridazine-3(2H)-one] was < 10 µM.
Consider `O=c1ccc(-c2cnc(N3CCCC3C(F)(F)F)nc2)nn1Cc1cncc(F)c1` (stereo not drawn) [Compound 54, 2-((5-fluoropyridin-3-yl)methyl)-6-(2-(2-(trifluoromethyl)pyrrolidin-l-yl)pyrimidin-5-yl)pyridazin-3(2H)-one], for which the IC50 is < 10 µM.
The value for `O=c1ccc(-c2ccc(OC(F)F)nc2)nn1Cc1ocnc1-c1ccccc1` [Compound 24, 6-(6-(difluoromethoxy)pyridin-3-yl)-2-((4-phenyloxazol-5-yl)methyl)pyridazin-3(2H)-one] was > 100 µM.
The value for `O=c1ccc(-c2ccc(OC(F)F)cc2)nn1Cc1nnc(-c2ccccc2)o1` [Compound 212, 6-(4-(difluoromethoxy)phenyl)-2-((5-phenyl-1,3,4-oxadiazol-2-yl)methyl)pyridazin-3(2H)-one] was 10 to 100 µM.
For `O=c1[nH]nc(Cn2nc(-c3ccc(OC(F)F)cc3)ccc2=O)o1` [Compound 234, 5-((3-(4-(difluoromethoxy)phenyl)-6-oxopyridazin-1(6H)-yl)methyl)-1,3,4-oxadiazol-2(3H)-one] the value was > 100 µM; for `CC1CCCN1c1ncc(-c2ccc(=O)n(Cc3cncc(F)c3)n2)cn1` (stereo not drawn) [Compound 28, 2-((5-fluoropyridin-3-yl)methyl)-6-(2-(2-methylpyrrolidin-l-yl)pyrimidin-5-yl)pyridazin-3(2H)-one], < 10 µM; for `O=c1ccc(-c2ccc(OC(F)F)cc2)nn1Cc1nc2ccccc2o1` [Compound 203, 2-(benzo[d]oxazol-2-ylmethyl)-6-(4-(difluoromethoxy)phenyl) pyridazine-3(2H)-one], < 10 µM.
For the compound `O=c1ccc(-c2cnc(OCC3(F)COC3)nc2)nn1Cc1nc(-c2ccccc2)no1` [Compound 91], the IC50 was < 10 µM.
The compound `O=c1ccc(-c2ccc(OC(F)F)nc2)nn1Cc1cccnc1` [Compound 10] had an IC50 of 10 to 100 µM.
For `CCOc1ncc(-c2ccc(=O)n(Cc3cncc(F)c3)n2)cn1` [Compound 68, 6-(2-ethoxypyrimidin-5-yl)-2-((5-fluoropyridin-3-yl)methyl)pyridazine-3(2H)-one] the value was < 10 µM; for `O=c1ccc(-c2ccc(OC(F)F)cc2)nn1Cc1nc2ccccc2[nH]1` [Compound 230, 2-((1H-benzo[d]imidazol-2-yl)methyl)-6-(4-(difluoromethoxy)phenyl)-pyridazin-3(2H)-one], > 100 µM; for `Cc1ccc(-c2ccc(=O)n(Cc3nc(-c4cccc(Cl)c4)no3)n2)cc1` [Compound 314, 2-((3-(3-chlorophenyl)-1,2,4-oxadiazol-5-yl)methyl)-6-(p-tolyl)pyridazin-3(2H)-one], > 100 µM.
As for `O=c1ccc(-c2cnc(OCC3COC3)nc2)nn1Cc1cncc(F)c1` [Compound 103, 2((5-fluoropyridin-3-yl)methyl)-6-(2-(oxetan-3-ylmethoxy)pyrimidin-5-yl)pyridazine-3(2H)-one], the IC50 was < 10 µM.
For `O=c1ccc(-c2cnc(OCC(F)(F)F)nc2)nn1Cc1cnccc1F` [Compound 79, 2-((4-fluoropyridin-3-yl)methyl)-6-(2-(2,2,2-trifluoroethoxy)pyrimidin-5-yl)pyridazin-3(2H)-one] the value was < 10 µM; for `O=c1ccc(-c2cnc(OCC(F)(F)F)nc2)nn1Cc1cc(CO)no1` [Compound 43, 2-((3-(hydroxymethyl)isoxazol-5-yl)methyl)-6-(2-(2,2,2-trifluoroethoxy)pyrimidin-5-yl)pyridazin-3(2H)-one], 10 to 100 µM; for `COc1cncc(Cn2nc(-c3cnc(OCC(F)(F)F)nc3)ccc2=O)c1` [Compound 128, 2-((5-methoxypyridin-3-yl)methyl)-6-(2-(2,2,2-trifluoroethoxy)pyrimidin-5-yl)pyridazine-3(2H)-one], < 10 µM.
For `CC[C@@H](C)Oc1ncc(-c2ccc(=O)n(Cc3cncc(F)c3)n2)cn1` [Compound 127], the IC50 was < 10 µM.
As to `CCCOc1ncc(-c2ccc(=O)n(Cc3cnc(CC)s3)n2)cn1` [Compound 112, 2-((2-ethylthiazol-5-yl)methyl)-6-(2-propoxypyrimidin-5-yl)pyridazine-3(2H)-one], the IC50 is < 10 µM.
The value for `O=c1ccc(-c2ccc(OC(F)F)nc2)nn1Cc1cncc(C(F)(F)F)c1` [Compound 76, 6-(6-(difluoromethoxy)pyridin-3-yl)-2-((5-(trifluoromethyl)pyridin-3-yl)methyl)pyridazin-3(2H)-one] was < 10 µM; that for `Cc1ncc(Cn2nc(-c3cnc(OCC(C)C)nc3)ccc2=O)s1` [Compound 130, 6-(2-isobutoxypyrimidin-5-yl)-2-((2-methylthiazol-5-yl)methyl)pyridazine-3(2H)-one] was < 10 µM; that for `O=c1ccc(-c2ccc(OC(F)F)cc2)nn1Cc1nc(C2CC2)co1` [Compound 214, 2-((4-cyclopropyloxazol-2-yl)methyl)-6-(4-(difluoromethoxy)phenyl)-pyridazin-3(2H)-one] was 10 to 100 µM.
For `O=c1ccc(-c2ccc(OC(F)F)nc2)nn1Cc1nnc(-c2ccccc2)s1` [Compound 22] the value was < 10 µM; for `O=c1ccc(-c2ccc(NC34CC(C3)C4)nc2)nn1Cc1cccnc1` [Compound 71], < 10 µM; for `O=c1ccc(-c2cnc(NC34CC(C3)C4)nc2)nn1Cc1cncc(Cl)c1` [Compound 75, 6-(2-(bicyclo[1.1.1]pentan-1-ylamino)pyrimidin-5-yl)-2-((5-chloropyridin-3-yl)methyl)pyridazin-3(2H)-one], < 10 µM.
For `Cc1nnc(Cn2nc(-c3ccc(OC(F)F)cc3)ccc2=O)o1` [Compound 222, 6-(4-(difluoromethoxy)phenyl)-2-((5-methyl-1,3,4-oxadiazol-2-yl)methyl)pyridazin-3(2H)-one] the value was 10 to 100 µM.
In turn, `O=c1ccc(-c2ccc(OC(F)F)cc2)nn1Cc1ccc(Cl)cn1` [Compound 211, 2-((5-chloropyridin-2-yl)methyl)-6-(4-(difluoromethoxy)phenyl)-pyridazin-3(2H)-one] came in with an IC50 of 10 to 100 µM.
For `Cc1ccc(-c2ccc(=O)n(Cc3nc(-c4ccccc4C)no3)n2)cc1` [Compound 312, 6-(p-tolyl)-2-((3-(o-tolyl)-1,2,4-oxadiaxol-5-yl)methyl)pyridazin-3(2H)-one] the value was < 10 µM; for `COCCOc1ncc(-c2ccc(=O)n(Cc3cncc(F)c3)n2)cn1` [Compound 70, 2-((5-fluoropyridin-3-yl)methyl)-6-(2-(2-methoxyethoxy)pyrimidin-5-yl)pyridazine-3(2H)-one], < 10 µM; for `O=c1ccc(-c2cnc(OCC(F)(F)F)nc2)nn1Cc1cnco1` [Compound 53, 2-(oxazol-5-ylmethyl)-6-(2-(2,2,2,- trifluoroethoxy)pyrimidin-5-yl)pyridazin-3(2H)-one], < 10 µM.
For `O=c1ccc(-c2cnc(OCc3cncc(F)c3)nc2)nn1Cc1cncc(F)c1` [Compound 107, 6-(2-((5-fluoropyridin-3-yl)methoxy)pyrimidin-5-yl)-2-((5-fluoropyridin-3-yl)methyl)pyridazin-3(2H)-one] the value was > 100 µM.
The value for `Cc1ccc(-c2noc(Cn3nc(-c4ccc(Cl)cc4)ccc3=O)n2)cc1` [Compound 313, 6-(4-chlorophenyl)-2-((3-(p-tolyl)-1,2,4-oxadiazol-5-yl)methyl)pyridazin-3(2H)-one] was 10 to 100 µM.
Consider `CSC(C)COc1ncc(-c2ccc(=O)n(Cc3cncc(F)c3)n2)cn1` (centres unmarked) [Compound 123, 2((5-fluoropyridin-3-yl)methyl)-6-(2-(2-(methylthio)propoxy)pyrimidin-5-yl)pyridazine-3(2H)-one], for which the IC50 is < 10 µM.
For `O=c1ccc(-c2cnc(OCCOC(F)(F)F)nc2)nn1Cc1cncc(F)c1` [Compound 97, 2-((5-fluoropyridin-3-yl)methyl)-6-(2-(2-(trifluoromethoxy)ethoxy)pyrimidin-5-yl)pyridazine-3(2H)-one] the value was < 10 µM.
